Measured values as given in US20100292232A1, “NON-NUCLEOSIDE REVERSE TRANSCRIPTASE INHIBITORS” (priority 2007, published 2010).
“Also recorded” adds a separate entry of the source. Where two headings read alike, the source gives them in different places.

Key:
[1] = tested on: HIV-1 vector with RT mutation V106A; assay: microbe, parasite or virus in culture; assay type: cell-based; conditions: Human immunodeficiency virus 1
[2] = tested on: HIV-1 reverse transcription viral DNA products; assay: real-time PCR quantitation of viral DNA products; assay type: cell-based; conditions: for effect on synthesis of early and late viral DNA products: 5 μM, 24 hours post infection, FIG. 18
Protocol: Real-time quantitation of viral DNA was accomplished using PCR as follows. The total cellular DNA was harvested 24 hours post infection with the AccuPrep genomic DNA extraction kit (Bioneer Life Science Corp., Rockville, Md.). The amount of viral DNA products was quantified by real-time PCR on ABI Prism 7900 Sequence Detection System (Applied Biosystems, Foster City, Calif.) with the following primers and probes: early HIV-1 reverse transcripts with primers ert2f, ert2r, probe ERT2 (Munk et al., Proc. Natl. Acad. Sci. 99(21):13843-48; 2002, herein incorporated by reference as to the sequence of the primers), late HIV-1 reverse transcripts with primers MH531, MH532, probe LRT-P, 2-LTR circular DNA with primers MHH535, MH536, probe MH603 (Butler et al., Nat. Med. 7(5):631-4; 2001, herein incorporated by reference as to the sequence of the primers and probes). To control the number of cell equivalent DNA in the samples, a single-copy locus in the porphobilinogen deaminase (PBGD) gene (Buckman et al., J. Virol. 77(2):1469-80; 2003) was amplified with primers PBGD1 (5′-[…]; SEQ ID NO: 1) and PBGD2 (5′-[…]; SEQ ID NO: 2) and probe PBGD-P (5′-VIC-[…]-MGBNFQ; SEQ ID NO: 3).
The quantitative real-time PCR-based approach described above was used to determine whether the presently disclosed compounds, such as 08-006-F2, block HIV infection at a step prior to the synthesis of late viral DNA products. Using different specific primers and probes, the amount of early viral DNA products, late viral DNA products, and 2LTR-containing circular forms of viral DNA, were quantified 24 hours post infection. […] As shown in F1G. 18, the effect of 5 μM compound 08-006-F2 and 5 μM AZT on the synthesis of viral DNA products was measured by quantitative real-time PCR. Quantitation of early and late HIV-1 reverse transcription products is illustrated, as is quantitation of 2-LTR containing circular DNA forms (the circular DNA forms serve as a surrogate marker for nuclear translocation of viral DNA). […]

[3] = tested on: HIV-1 vector with RT mutation Y181C; assay: microbe, parasite or virus in culture; assay type: cell-based; conditions: Human immunodeficiency virus 1
[4] = tested on: HIV-1 vector with RT mutation K103N; assay: microbe, parasite or virus in culture; assay type: cell-based; conditions: Human immunodeficiency virus 1
[5] = tested on: VSV-G pseudotyped HIV-1 vector (wild-type, pNL4-3LucR+E-); assay: microbe, parasite or virus in culture; assay type: cell-based; conditions: for EC50 / IC50: Human immunodeficiency virus 1, HEK-293T
[6] = cytotoxicity, CellTiter-Glo (ATP content) 24 hours after treatment; conditions: human, mock-infected 293T cells
[7] = biological target: T1, HIV-1 reverse transcriptase (Human immunodeficiency virus type 1 group M subtype B, UniProt P04585); assay: in vitro purified HIV-1 reverse transcriptase assay; assay type: biochemical
T1 construct: HIV-1 RT includes a p66/p51 heterodimer; purchased Ambion, Austin, Tex
Protocol: Anti-HIV-1 reverse transcriptase activity of the disclosed inhibitor compounds was assayed in vitro using an assay adapted from King et al. (Antimicrob. Agents Chemother. 46(6): 1640-46; 2002) and Telesnitsky et al. (Methods Enzymol. 262:347-62; 1995). HIV-1 RT (0.5 units; Ambion, Austin, Tex.) was incubated with various concentrations of compounds for 5 minutes at room temperature. Then a template-primer mixture was added to reach final concentration of 5 μg/mL oligo(dT)20, 10 μg/mL poly(rA), 1.25 μM [α-32P]dTTP and 10 μM dTTP. The mixture was incubated at 37° C. for 60 minutes. Aliquots of the reaction were spotted on DEAE paper, washed twice with 2×SSC buffer (300 mM NaCl, 30 mM sodium citrate) and once with 95% ethanol, dried and exposed to PhosphorImager screen (Molecular Dynamics, Sunnyvale, Calif.). The screens were scanned by FLA-5100 instrument (Fujifilm Life Science, Stamford, Conn.) and the amount of incorporated labeled phosphate was used to quantify the RT activity. The best fitted curves and IC50 values were calculated using Prism 4 software (GraphPad Software, San Diego). […] For the in vitro studies, a triphosphate form of AZT (EMD Biosciences, San Diego, Calif.) was used.

[8] = tested on: cells that express luciferase from established HIV-1 proviral DNA; assay: effect on provirus gene expression; assay type: cell-based; conditions: data not shown
Source text: It also was investigated whether 08-006-F2 exerts an additional effect on provirus gene expression.

[9] = tested on: wild-type and NNRTI mutant viruses (Y188L, Y181C, V106A, K103N); assay: cell based infectivity assay, wild type and four mutant vectors together; design: species or system HIV-1; conditions: FIGS. 22 and 24
[10] = tested on: HIV-1 vector with RT mutation Y188L; assay: microbe, parasite or virus in culture; assay type: cell-based; conditions: Human immunodeficiency virus 1
[11] = tested on: HIV reverse transcriptase having a mutation at codon 106 and 181 and 227; conditions: strains with RT mutation at codon 106 (alanine), 181 (cysteine) and 227 (leucine); U.S. Pat. No. 7,037,644; cited from earlier work
[12] = tested on: HIV reverse transcriptase having a mutation at codons 103 alone or in combination with a mutation at codon 188; conditions: strains with RT mutation at codon 103 (asparagine) alone or with 188 (leucine); U.S. Pat. No. 7,037,644; cited from earlier work
[13] = tested on: HIV reverse transcriptase having a mutation at codon 181 and 227; conditions: strains with RT mutation at codon 181 (cysteine) and 227 (leucine); U.S. Pat. No. 7,037,644; cited from earlier work

Row | Compound | EC50 [1] [nM] | effect on synthesis of early and late viral DNA products [2] | EC50 [3] [nM] | EC50 [4] [nM] | EC50 [5] [nM] | EC50 [10] [nM] | change in drug susceptibility [11] | change in drug susceptibility [12] | change in drug susceptibility [13] | also measured
1 | Clc1ccccc1-c1nc2ccccn2c1NC1CCCCC1 [08-006-F2] | 764 | blocked the synthesis of early and late viral DNA | 1070 | 2360 | 185 | – | – | – | – | inhibition of HIV-1 late RT product formation ([2]; dose response, FIG. 19): dose-dependent inhibition; combined effect with AZT on HIV-1 infectivity (isobologram) [5]: synergistic effects; also recorded: synergistic inhibition; IC50 [5]: 800 nM; IC50 ([5]; read-out: IC50 inhibition of HIV-1 vector infectivity): 170 nM; CC50 at 24 h [6]: 35000 nM; IC50 ([7]; FIG. 16 dose-response curve, read-out: IC50 inhibition of purified HIV-1 reverse transcriptase activity): 2800 nM; combined effect with AZT on purified HIV-1 reverse transcriptase (isobologram) ([7]; combination with AZT triphosphate, 50% and 90% fractional inhibitory concentrations, FIGS. 17A, 17B): synergistic effect; also recorded: synergistic inhibition; effect on provirus gene expression [8]: no significant influence
2 | Cc1cn([C@H]2C[C@H](N=[N+]=[N-])[C@@H](CO)O2)c(=O)[nH]c1=O [AZT, zidovudine] | 9.14 | block at the reverse transcription step | 6.12 | 8.76 | 7.7 | 9.35 | – | – | – | inhibition of wild-type and NNRTI-resistant RT mutant viruses (in words) [9]: efficiently inhibited
3 | Cc1ccnc2c1NC(=O)c1cccnc1N2C1CC1 [NVP, nevirapine] | 888 | – | 2000 | 977 | 27.4 | 279000 | – | – | – | –
4 | CC(C)Nc1cccnc1N1CCN(C(=O)c2cc3cc(NS(C)(=O)=O)ccc3[nH]2)CC1 [delavirdine] | – | – | – | – | – | – | moderate decrease | substantial decrease | increase | –
5 | O=C1Nc2ccc(Cl)cc2[C@@](C#CC2CC2)(C(F)(F)F)O1 [efavirenz] | – | – | – | – | – | – | slight decrease | substantial decrease | increase | –
6 | Cc1ccnc2c1NC(=O)c1cccnc1N2C1CC1 [nevirapine, Nevirapine] | – | – | – | – | – | – | substantial decrease | substantial decrease | significant decrease | –
